Patent US7550485B2, “Substituted N-heterocycle derivatives and methods of their use” (Wyeth, priority 2003, dated 2009)
Where a name gives a salt, the structure may show the parent alone.

Target: T1, hNET (Homo sapiens, UniProt P23975)
T1 construct: expressed in transfected cells
Assay: Norepinephrine (NE) uptake assay in MDCK-Net6 cells stably transfected with human hNET
Type: cell-based
Conditions: MDCK-Net6, 1 μM test compound, [3H]NE uptake
Procedure: MDCK-Net6 cells, stably transfected with human hNET (Pacholczyk, T., R. D. Blakely, and S. G. Amara, Nature, 1991, 350(6316): p. 350-4) were cultured in growth medium containing high glucose DMEM (Gibco, Cat. No. 11995), 10% FBS (dialyzed, heat-inactivated, US Bio-Technologies, Lot FBD1129HI) and 500 μg/ml G418 (Gibco, Cat. No. 10131). Cells were plated at 300,000/T75 flask and cells were split twice weekly. The JAR cell line (human placental choriocarcinoma) was purchased from ATCC (Cat. No. HTB-144). The cells were cultured in growth medium containing RPMI 1640 (Gibco, Cat. No. 72400), 10% FBS (Irvine, Cat. No. 3000), 1% sodium pyruvate (Gibco, Cat. No. 1136) and 0.25% glucose. Cells were plated at 250,000 cells/T75 flask and split twice weekly. For all assays, cells were plated in Wallac 96-well sterile plates (PerkinElmer, Cat. No. 3983498).
Norepinephrine (NE) Uptake Assay
On day 1, cells were plated at 3,000 cells/well in growth medium and maintained in a cell incubator (37° C., 5% CO2). On day 2, growth medium was replaced with 200 μl of assay buffer (25 mM HEPES; 120 mM NaCl; 5 mM KCl; 2.5 mM CaCl2; 1.2 mM MgSO4; 2 mg/ml glucose (pH 7.4, 37° C.)) containing 0.2 mg/ml ascorbic acid and 10 μM pargyline. Plates containing cells with […] of assay buffer were equilibrated for 10 minutes at 37° C. prior to addition of compounds. A stock solution of desipramine was prepared in DMSO (10 mM) and delivered to triplicate wells containing cells for a final test concentration of 1 μM. Data from these wells were used to define non-specific NE uptake (minimum NE uptake). Test compounds were prepared in DMSO (10 mM) and diluted in assay buffer according to test range (1 to 10,000 nM). Twenty-five microliters of assay buffer (maximum NE uptake) or test compound were added directly to triplicate wells containing cells in 200 μl of assay buffer. The cells in assay buffer with test compounds were incubated for 20 minutes at 37° C. To initiate the NE uptake, [^3H]NE diluted in assay buffer (120 nM final assay concentration) was delivered in 25 μl aliquots to each well and the plates were incubated for 5 minutes (37° C.). The reaction was terminated by decanting the supernatant from the plate. The plates containing cells were washed twice with 200 μl assay buffer (37° C.) to remove free radioligand. The plates were then inverted, left to dry for 2 minutes, then reinverted and air-dried for an additional 10 minutes. The cells were lysed in 25 μl of 0.25 N NaOH solution (4° C.), placed on a shake table and vigorously shaken for 5 minutes. After cell lysis, 75 μl of scintillation cocktail was added to each well and the plates were sealed with film tape. The plates were returned to the shake table and vigorously shaken for a minimum of 10 minutes to ensure adequate partitioning of organic and aqueous solutions. The plates were counted in a Wallac Microbeta counter (PerkinElmer) to collect the raw cpm data.
For each experiment, a data stream of cpm values collected from the Wallac Microbeta counter was downloaded to a Microsoft Excel statistical application program. Calculations of EC50 values were made using the transformed-both-sides logistic dose response program written by Wyeth Biometrics Department. The statistical program uses mean cpm values from wells representing maximum binding or uptake (assay buffer) and mean cpm values from wells representing minimum binding or uptake ((1 μM desipramine (hNET) or 1 μM paroxetine (hSERT)). Estimation of the EC50 value was completed on a log scale and the line was fit between the maximum and minimum binding or uptake values. All graphic data representation was generated by normalizing each data point to a mean percent based on the maximum and minimum binding or uptake values. The EC50 values reported from multiple experiments were calculated by pooling the raw data from each experiment and analyzing the pooled data as one experiment.

T1 sequence (P23975 whole entry): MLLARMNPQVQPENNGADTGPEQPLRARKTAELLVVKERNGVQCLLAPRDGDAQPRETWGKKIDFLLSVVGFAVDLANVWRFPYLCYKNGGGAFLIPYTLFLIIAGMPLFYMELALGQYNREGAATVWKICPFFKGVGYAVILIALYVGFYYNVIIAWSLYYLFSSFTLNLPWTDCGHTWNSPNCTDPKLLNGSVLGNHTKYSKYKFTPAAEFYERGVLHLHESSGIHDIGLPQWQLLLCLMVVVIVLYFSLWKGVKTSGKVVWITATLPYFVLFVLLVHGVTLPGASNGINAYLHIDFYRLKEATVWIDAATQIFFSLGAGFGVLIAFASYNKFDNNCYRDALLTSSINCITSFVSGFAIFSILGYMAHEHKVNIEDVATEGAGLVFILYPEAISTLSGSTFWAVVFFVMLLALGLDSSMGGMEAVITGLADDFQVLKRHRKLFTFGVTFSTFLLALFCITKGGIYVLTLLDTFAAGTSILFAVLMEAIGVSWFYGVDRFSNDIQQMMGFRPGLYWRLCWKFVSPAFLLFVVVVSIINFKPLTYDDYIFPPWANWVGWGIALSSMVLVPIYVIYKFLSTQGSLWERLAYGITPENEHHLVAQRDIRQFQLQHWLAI

Structure (SMILES) | inhibition at 1 µM
NC1CCN(CC(c2cccc(C(F)(F)F)c2)C2(O)CCCCC2)CC1 (stereo not drawn) [Example 39, 1-{2-(4-aminopiperidin-1-yl)-1-[3-(trifluoromethyl)phenyl]ethyl}cyclohexanol dihydrochloride] | 56%
NC1CCN(CC(c2cccc3ccccc23)C2(O)CCC2)CC1 (stereo not drawn) [Example 43, 1-[2-(4-aminopiperidin-1-yl)-1-(1-naphthyl)ethyl]cyclobutanol dihydrochloride] | 47%
CNC1CCN(CC(c2ccc3ccccc3c2)C2(O)CCCCC2)CC1 (stereo not drawn) [Example 49, 1-[2-[4-(methylamino)piperidin-1-yl]-1-(2-naphthyl)ethyl]cyclohexanol dihydrochloride] | 39%
NC1CCN(CC(c2cccc3ccccc23)C2(O)CCCCC2)CC1 (stereo not drawn) [Example 54, 1-[2-(4-aminopiperidin-1-yl)-1-(1-naphthyl)ethyl]cyclohexanol dihydrochloride] | 39%
CN[C@@H]1CCCN(CC(c2cccc(OC(F)(F)F)c2)C2(O)CCCCC2)C1 (stereo partly drawn) [Example 186, 1-[2-{(3R)-3-(methylamino)piperidin-1-yl]-1-[3-(trifluoromethoxy)phenyl]ethyl}cyclohexanol dihydrochloride] | 50.4%
CN(C)[C@@H]1CCCN(CC(c2cccc(OC(F)(F)F)c2)C2(O)CCCCC2)C1 (stereo partly drawn) [Example 188, 1-{2-[(3R)-3-(dimethylamino)piperidin-1-yl]-1-[3-(trifluoromethoxy)phenyl]ethyl}cyclohexanol dihydrochloride] | 17.6%
CN[C@H]1CCCN(CC(c2cccc(OC(F)(F)F)c2)C2(O)CCCCC2)C1 (stereo partly drawn) [Example 189, 1-{2-[(3S)-3-(methylamino)piperidin-1-yl]-1-[3-(trifluoromethoxy)phenyl]ethyl}cyclohexanol dihydrochloride] | 67.9%
CN(C)[C@H]1CCCN(CC(c2cccc(OC(F)(F)F)c2)C2(O)CCCCC2)C1 (stereo partly drawn) [Example 191, 1-{2-[(3S)-3-(dimethylamino)piperidin-1-yl]-1-[3-(trifluoromethoxy)phenyl]ethyl}cyclohexanol dihydrochloride] | 12.3%
CN[C@H]1CCN(CC(c2cccc(Cl)c2)C2(O)CCCCC2)C1 (stereo partly drawn) [Example 198, 1-1-{1-(3-chlorophenyl)-2-[(3S)-3-(methylamino)pyrrolidin-1-yl]ethyl}cyclohexanol dihydrochloride] | 77.8%
CN(C)[C@H]1CCN(CC(c2cccc(Cl)c2)C2(O)CCCCC2)C1 (stereo partly drawn) [Example 199, 1-{1-(3-chlorophenyl)-2-[(3S)-3-(dimethylamino)pyrrolidin-1-yl]ethyl}cyclohexanol dihydrochloride] | 80.7%
CN[C@@H]1CCN(CC(c2cccc(Cl)c2)C2(O)CCCCC2)C1 (stereo partly drawn) [Example 200, 1-{1-(3-chlorophenyl)-2-[(3R)-3-(methylamino)pyrrolidin-1-yl]ethyl}cyclohexanol dihydrochloride] | 54.1%
CN(C)[C@@H]1CCN(CC(c2cccc(Cl)c2)C2(O)CCCCC2)C1 (stereo partly drawn) [Example 202, 1-{1-(3-chlorophenyl)-2-[(3R)-3-(dimethylamino)pyrrolidin-1-yl]ethyl}cyclohexanol dihydrochloride] | 74.3%
CN[C@H]1CCN(CC(c2cccc3ccccc23)C2(O)CCCCC2)C1 (stereo partly drawn) [Example 206, 1-[2-[(3S)-3-(methylamino)pyrrolidin-1-yl]-1-(1-naphthyl)ethyl]cyclohexanol dihydrochloride] | 19.2%

Now from value to compound:

inhibition at 1 µM | Structure (SMILES)
62.3% | N[C@@H]1CCCN(CC(c2cccc(OC(F)(F)F)c2)C2(O)CCCCC2)C1 (stereo partly drawn) [Example 187, 1-[2-{(3R)-3-aminopiperidin-1-yl]-1-[3-(trifluoromethoxy)phenyl]ethyl}cyclohexanol dihydrochloride]
49.9% | N[C@H]1CCCN(CC(c2cccc(OC(F)(F)F)c2)C2(O)CCCCC2)C1 (stereo partly drawn) [Example 190, 1-{2-[(3S)-3-aminopiperidin-1-yl]-1-[3-(trifluoromethoxy)phenyl]ethyl}cyclohexanol dihydrochloride]
88.5% | CN[C@@H]1CCCN(CC(c2ccc(OCc3ccccc3)c(Cl)c2)C2(O)CCCCC2)C1 (stereo partly drawn) [Example 192, 1-{1-[4-(benzyloxy)-3-chlorophenyl]-2-[(3R)-3-(methylamino)piperidin-1-yl]ethyl}cyclohexanol dihydrochloride]
87.2% | N[C@@H]1CCCN(CC(c2ccc(OCc3ccccc3)c(Cl)c2)C2(O)CCCCC2)C1 (stereo partly drawn) [Example 193, 1-{2-[(3R)-3-aminopiperidin-1-yl]-1-[4-(benzyloxy)-3-chlorophenyl]ethyl}cyclohexanol dihydrochloride]
81.1% | CN(C)[C@@H]1CCCN(CC(c2ccc(OCc3ccccc3)c(Cl)c2)C2(O)CCCCC2)C1 (stereo partly drawn) [Example 194, 1-{1-[4-(benzyloxy)-3-chlorophenyl]-2-[(3R)-3-(dimethylamino)piperidin-1-yl]ethyl}cyclohexanol dihydrochloride]
92% | CN[C@H]1CCCN(CC(c2ccc(OCc3ccccc3)c(Cl)c2)C2(O)CCCCC2)C1 (stereo partly drawn) [Example 195, 1-{1-[4-(benzyloxy)-3-chlorophenyl]-2-[(3S)-3-(methylamino)piperidin-1-yl]ethyl}cyclohexanol dihydrochloride]
92.2% | N[C@H]1CCCN(CC(c2ccc(OCc3ccccc3)c(Cl)c2)C2(O)CCCCC2)C1 (stereo partly drawn) [Example 196, 1-{2-[(3S)-3-aminopiperidin-1-yl]-1-[4-(benzyloxy)-3-chlorophenyl]ethyl}cyclohexanol dihydrochloride]
76% | CN(C)[C@H]1CCCN(CC(c2ccc(OCc3ccccc3)c(Cl)c2)C2(O)CCCCC2)C1 (stereo partly drawn) [Example 197, 1-{1-[4-(benzyloxy)-3-chlorophenyl]-2-[(3S)-3-(dimethylamino)piperidin-1-yl]ethyl}cyclohexanol dihydrochloride]
37.5% | N[C@@H]1CCN(CC(c2cccc(Cl)c2)C2(O)CCCCC2)C1 (stereo partly drawn) [Example 201, 1-[2-[(3R)-3-aminopyrrolidin-1-yl]-1-(3-chlorophenyl)ethyl]cyclohexanol dihydrochloride]
59.2% | CN[C@H]1CCN(CC(c2ccc3ccccc3c2)C2(O)CCCCC2)C1 (stereo partly drawn) [Example 203, 1-[2-[(3S)-3-(methylamino)pyrrolidin-1-yl]-1-(2-naphthyl)ethyl]cyclohexanol dihydrochloride]
70.4% | N[C@H]1CCN(CC(c2ccc3ccccc3c2)C2(O)CCCCC2)C1 (stereo partly drawn) [Example 204, 1-[2-[(3S)-3-aminopyrrolidin-1-yl]-1-(2-naphthyl)ethyl]cyclohexanol dihydrochloride]
39.5% | CN(C)[C@H]1CCN(CC(c2ccc3ccccc3c2)C2(O)CCCCC2)C1 (stereo partly drawn) [Example 205, 1-[2-[(3S)-3-(dimethylamino)pyrrolidin-1-yl]-1-(2-naphthyl)ethyl]cyclohexanol dihydrochloride]
65.7% | N[C@H]1CCN(CC(c2cccc3ccccc23)C2(O)CCCCC2)C1 (stereo partly drawn) [Example 207, 1-[2-[(3S)-3-aminopyrrolidin-1-yl]-1-(1-naphthyl)ethyl]cyclohexanol dihydrochloride]
98.5% | CN[C@H]1CCN(CC(c2ccc(OCc3ccccc3)c(Cl)c2)C2(O)CCCCC2)C1 (stereo partly drawn) [Example 209, 1-{1-[4-(benzyloxy)-3-chlorophenyl]-2-[(3S)-3-(methylamino)pyrrolidin-1-yl]ethyl}cyclohexanol dihydrochloride]
